The results in this text go back to patent US8518942B2, “Caspase inhibitors and uses thereof” (Buck Institute for Research on Aging, priority 2008, dated 2013).

What all share (type): biochemical
The target of one test is T1, caspase-8 (Homo sapiens, UniProt Q14790).
T1 construct: gift: Guy Salvesen's laboratory, Burnham Institute (La Jolla, Calif.)
Description: Irreversible inhibitor kinetic assay (progress curve), caspase-8, substrate Ac-DEVD-AMC. As to conditions: casp-8; duplicate, SD included. From the text:
(§1) Caspases-3, -6, -7, -8, and -9 were provided by Guy Salvesen's laboratory at the Burnham Institute (La Jolla, Calif.). Caspase-1 was purchased from EMD Biosciences (San Diego, Calif.) and Caspase-2 was purchased from Biomol International (Plymouth Meeting, Pa.). Caspase substrates Ac-DEVD-AMC, Ac-VDVAD-AFC, and Ac-LEHD-AFC were purchased from EMD Biosciences (San Diego, Calif.) and Ac-VDVAD-AMC was purchased from Biomol International (Plymouth Meeting, Pa.). The proteolytic cleavage of N-acyl aminocoumarins by caspases was conducted in Dynatech Microfluor fluorescence 96-well microtiter plates, and readings were taken on a Molecular Devices Spectra Max Gemini XS instrument. The excitation wavelength was 370 nm and the emission wavelength was 455 nm for AMCA substrates, the excitation wavelength was 355 nm and the emission wavelength was 450 nm for peptidyl AMC substrates, and the excitation wavelength was 430 nm and the emission wavelength was 535 nm for peptidyl AFC substrates.
(§2) The kinact/Ki for inhibitors were determined under pseudo-first order conditions using the progress curve method (Eckici et al. (2006) J. Med. Chem., 49: 5728-5749; Bieth (1995) Meth. Enzymol., 248: 59-84). Assay wells contained a mixture of inhibitor and AMC or AFC substrate in buffer. Aliquots of caspase were added to each well to initiate the assay. Hydrolysis of the AMC or AFC substrate was monitored fluorometrically for 45 min. To determine the inhibition parameters, time points for which the control ([I]=0) was linear were used. For each inhibitor, a kobs was calculated for at least four different concentrations of inhibitors via a nonlinear regression of the data according to the equation P=(vi/kobs)[1−exp(−kobst) (where product formation=P, […], and the first-order rate constant=kobs). If kobs varied linearly with [I], then the association constant kass was determined by linear regression analysis using kobs=(kass[I])/(1+[S]/Km) where [S] is the concentration of the substrate. […] Inhibition was measured in duplicate and the average of is reported. […]

In the next test the target is T2, caspase-1 (Homo sapiens, UniProt P29466).
T2 construct: purchased EMD Biosciences (San Diego, Calif.)
T2 sequence (P29466 120-297 limits assumed): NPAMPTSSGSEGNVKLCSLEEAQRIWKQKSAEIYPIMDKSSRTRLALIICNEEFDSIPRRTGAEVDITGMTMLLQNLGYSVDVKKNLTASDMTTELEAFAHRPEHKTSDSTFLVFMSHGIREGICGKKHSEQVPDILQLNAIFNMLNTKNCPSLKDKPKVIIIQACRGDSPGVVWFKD
T2 sequence (P29466 317-404 limits assumed): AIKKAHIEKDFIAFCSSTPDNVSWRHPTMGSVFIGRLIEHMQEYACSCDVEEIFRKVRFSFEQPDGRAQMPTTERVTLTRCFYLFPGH
Description: Irreversible inhibitor kinetic assay (progress curve), caspase-1, substrate Ac-WEHD-AMC. As to conditions: casp-1; duplicate, SD included.
Text: as §1, §2

A further test addresses T3, Caspase 3 (Homo sapiens, UniProt P42574).
T3 sequence (P42574 29-175 limits assumed): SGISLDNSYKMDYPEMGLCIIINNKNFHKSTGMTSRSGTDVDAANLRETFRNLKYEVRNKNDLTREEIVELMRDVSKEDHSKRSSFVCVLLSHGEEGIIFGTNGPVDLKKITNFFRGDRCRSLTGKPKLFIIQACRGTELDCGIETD
T3 sequence (P42574 176-277 limits assumed): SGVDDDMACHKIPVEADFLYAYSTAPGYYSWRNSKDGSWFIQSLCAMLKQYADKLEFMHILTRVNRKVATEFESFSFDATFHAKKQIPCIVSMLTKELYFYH
In words: Irreversible inhibitor kinetic assay (progress curve), caspase-3, substrate Ac-DEVD-AMC. To be noted: casp-3; duplicate, SD included. More on the design: gift: Guy Salvesen's laboratory, Burnham Institute (La Jolla, Calif.).
Text: as §1, §2

T1 sequence (Q14790 217-374 limits assumed): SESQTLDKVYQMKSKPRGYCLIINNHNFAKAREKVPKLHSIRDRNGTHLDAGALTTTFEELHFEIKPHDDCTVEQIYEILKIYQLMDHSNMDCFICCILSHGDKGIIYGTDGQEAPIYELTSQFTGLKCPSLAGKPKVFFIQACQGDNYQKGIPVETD
T1 sequence (Q14790 385-479 limits assumed): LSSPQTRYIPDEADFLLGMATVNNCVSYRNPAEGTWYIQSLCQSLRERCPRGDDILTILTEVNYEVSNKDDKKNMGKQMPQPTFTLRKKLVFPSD

Take `C[C@@](NC(=O)CCCC(=O)O)(c1cn([C@@H](CC(=O)O)C(=O)COc2c(F)c(F)cc(F)c2F)nn1)C1CCCCC1` [MJL-002i]: the values for the kinact/Ki on caspase-8, at caspase-1 and on Caspase 3 were 30,650 ± 1,950 s^−1/M^−1, 243,250 ± 350 s^−1/M^−1 and 81,700 ± 6,900 s^−1/M^−1, respectively.

As to `C[C@@](NS(=O)(=O)Cc1ccccc1)(c1cn([C@@H](CC(=O)O)C(=O)COc2c(F)c(F)cc(F)c2F)nn1)C1CCCCC1` [MJL-001i], the figures for the kinact/Ki on caspase-8, at caspase-1 and on Caspase 3 were 82,850 ± 1,150 s^−1/M^−1, 55,200 ± 2,600 s^−1/M^−1 and 47,000 ± 1,400 s^−1/M^−1, respectively.

Consider `C[C@@](NC(=O)Cc1ccccc1)(c1cn([C@@H](CC(=O)O)C(=O)COc2c(F)c(F)cc(F)c2F)nn1)C1CCCCC1` [MJL-003i], for which the kinact/Ki is reported as 60,000 ± 2,800 s^−1/M^−1 on caspase-8, 55,200 ± 200 s^−1/M^−1 at caspase-1 and 29,850 ± 850 s^−1/M^−1 on Caspase 3.
